From US20060194837A1, “Tetrahydroisoquinoline compounds” (priority 2004, published 2006)
Values belong to the molecule of their own block, whether it stands above or below them.

Assays:
[1] = molecular target: T1, Rat SERT (Rattus norvegicus, UniProt P31652); experiment: Rat brain SERT binding ([3H]-citalopram displacement); details: rat brain membranes without cerebellum, 0.6 nM [3H]-citalopram, 60 min at 25° C.; read-out: Rat SERT Ki
T1 construct: A rat brain without cerebellum (Zivic Laboratories, Inc.—Pittsburgh, Pa.) was homogenized; tissue Zivic Laboratories, Inc; host or cells: rat brain without cerebellum, membranes
Procedure: The supernatant was removed and re-centrifuged at 15,000 rpm for 30 min. […] Membranes were incubated with 0.6 nM [^3H]-Citalopram plus/minus test compounds for 60 min at 25° C. and harvested by rapid filtration over GF/C glass fiber filters (pretreated with 0.3% polyethylenimine) followed by four washes with ice-cold buffer.

[2] = molecular target: T2, human H3 receptor (Homo sapiens, UniProt Q9Y5N1); experiment: H3 receptor binding (N-[3H]-α-methylhistamine displacement); details: membranes of SK-N-MC cells expressing cloned human H3 receptor, 0.8 nM N-[3H]-α-methylhistamine, 60 min at 25° C.
T2 construct: expressed in transfected cells
Procedure: Briefly, cell pellets from SK-N-MC cells expressing the human H3 receptor were homogenized in 50 mM Tris-HCl/5 mM EDTA and re-centrifuged at 30,000 g for 30 min. Pellets were re-homogenized in 50 mM Tris/6 mM EDTA (pH 7.4). Membranes were incubated with 0.8 nM N-[^3H]-α-methylhistamine plus/minus test compounds for 60 min at 25° C. and harvested by rapid filtration over GF/C glass fiber filters (pretreated with 0.3% polyethylenimine) followed by four washes with ice-cold buffer. Nonspecific binding was defined in the presence of 10 μM histamine.

T1 sequence (P31652 whole entry): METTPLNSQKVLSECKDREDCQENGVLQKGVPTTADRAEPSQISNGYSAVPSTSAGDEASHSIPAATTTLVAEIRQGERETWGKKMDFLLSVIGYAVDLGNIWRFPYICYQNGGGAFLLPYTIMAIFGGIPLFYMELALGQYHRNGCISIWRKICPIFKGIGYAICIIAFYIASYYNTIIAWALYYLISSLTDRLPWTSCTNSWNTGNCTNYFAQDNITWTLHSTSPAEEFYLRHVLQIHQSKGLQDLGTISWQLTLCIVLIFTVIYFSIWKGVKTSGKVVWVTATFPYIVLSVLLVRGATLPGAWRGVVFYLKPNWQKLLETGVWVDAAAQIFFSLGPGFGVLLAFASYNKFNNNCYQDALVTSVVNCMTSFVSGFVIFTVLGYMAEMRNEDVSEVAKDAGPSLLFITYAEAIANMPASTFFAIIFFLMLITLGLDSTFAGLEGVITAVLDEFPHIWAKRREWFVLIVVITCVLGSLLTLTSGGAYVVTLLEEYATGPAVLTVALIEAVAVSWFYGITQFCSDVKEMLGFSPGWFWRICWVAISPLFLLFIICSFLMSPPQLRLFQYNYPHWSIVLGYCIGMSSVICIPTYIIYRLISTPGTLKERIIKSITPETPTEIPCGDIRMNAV
T2 sequence (Q9Y5N1 whole entry): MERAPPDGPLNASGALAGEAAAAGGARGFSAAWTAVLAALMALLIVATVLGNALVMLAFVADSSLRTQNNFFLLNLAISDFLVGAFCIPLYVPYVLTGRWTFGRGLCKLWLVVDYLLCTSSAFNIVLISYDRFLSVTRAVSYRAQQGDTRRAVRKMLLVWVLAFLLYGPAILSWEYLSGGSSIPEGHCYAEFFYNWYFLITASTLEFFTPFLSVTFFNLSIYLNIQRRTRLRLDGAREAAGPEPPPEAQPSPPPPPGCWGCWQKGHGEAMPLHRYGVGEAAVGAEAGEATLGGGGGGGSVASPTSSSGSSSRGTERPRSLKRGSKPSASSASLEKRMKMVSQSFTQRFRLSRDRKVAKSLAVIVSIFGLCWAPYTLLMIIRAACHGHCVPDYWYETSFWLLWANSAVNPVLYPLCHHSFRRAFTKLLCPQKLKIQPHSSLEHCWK

Compound: CCN1CCC(Oc2ccc3c(c2)CN(C)CC3c2cccc(OC)c2)CC1 (centres unmarked) [Example 100, 7-(1-Ethyl-piperidin-4-yloxy)-4-(3-methoxy-phenyl)-2-methyl-1,2,3,4-tetrahydro-isoquinoline]
- Ki [1]: 10 nM
- Ki [2]: 2 nM

Compound: COc1cccc(C2CN(C)Cc3cc(OC4CCN(C5CCCC5)CC4)ccc32)c1 (centres unmarked) [Example 101, 7-(1-Cyclopentyl-piperidin-4-yloxy)-4-(3-methoxy-phenyl)-2-methyl-1,2,3,4-tetrahydro-isoquinoline]
- Ki [1]: 18 nM
- Ki [2]: 2 nM

Compound: COc1ccc(C2CN(C)Cc3cc(OCC4CCN(C5CCC5)CC4)ccc32)cc1Cl (centres unmarked) [Example 106, 4-(3-Chloro-4-methoxy-phenyl)-7-(1-cyclobutyl-piperidin-4-ylmethoxy)-2-methyl-1,2,3,4-tetrahydro-isoquinoline]
- Ki [1]: 25 nM
- Ki [2]: 6 nM

Compound: COc1ccc(C2CN(C)Cc3cc(OCC4CCN(C5CCC5)CC4)ccc32)cc1F (centres unmarked) [Example 111, 7-(1-Cyclobutyl-piperidin-4-ylmethoxy)-4-(3-fluoro-4-methoxy-phenyl)-2-methyl-1,2,3,4-tetrahydro-isoquinoline]
- Ki [1]: 4 nM
- Ki [2]: 8 nM

Compound: COc1ccc(C2CN(C)Cc3cc(OCC4CCN(C5CCC5)CC4)ccc32)c(F)c1 (centres unmarked) [Example 113, 7-(1-Cyclobutyl-piperidin-4-ylmethoxy)-4-(2-fluoro-4-methoxy-phenyl)-2-methyl-1,2,3,4-tetrahydro-isoquinoline]
- Ki [1]: 10 nM
- Ki [2]: 8 nM

Compound: CCCN1CCC(COc2ccc3c(c2)CN(C)CC3c2ccc(OC)cc2F)CC1 (centres unmarked) [Example 114, 4-(2-Fluoro-4-methoxy-phenyl)-2-methyl-7-(1-propyl-piperidin-4-ylmethoxy)-1,2,3,4-tetrahydro-isoquinoline]
- Ki [1]: 9 nM
- Ki [2]: 4 nM

Compound: COc1ccc(C2CN(C)Cc3cc(OCC4CCN(CC(C)C)CC4)ccc32)c(F)c1 (centres unmarked) [Example 115, 4-(2-Fluoro-4-methoxy-phenyl)-7-(1-isobutyl-piperidin-4-ylmethoxy)-2-methyl-1,2,3,4-tetrahydro-isoquinoline]
- Ki [1]: 8 nM
- Ki [2]: 10 nM

Compound: COc1ccc(C2CN(C)Cc3cc(OC4CCN(C(C)C)CC4)ccc32)c(F)c1 (centres unmarked) [Example 119, 4-(2-Fluoro-4-methoxy-phenyl)-7-(1-isopropyl-piperidin-4-yloxy)-2-methyl-1,2,3,4-tetrahydro-isoquinoline]
- Ki [1]: 9 nM
- Ki [2]: 1 nM

Compound: COc1ccc(C2CN(C)Cc3cc(OC4CCN(C(C)C)CC4)ccc32)cc1F (centres unmarked) [Example 120, 4-(3-Fluoro-4-methoxy-phenyl)-7-(1-isopropyl-piperidin-4-yloxy)-2-methyl-1,2,3,4-tetrahydro-isoquinoline]
- Ki [1]: 10 nM
- Ki [2]: 1 nM

Compound: COc1ccc(C2CN(C)Cc3cc(OCC4CCN(C(=O)C(F)(F)F)CC4)ccc32)cc1 (centres unmarked) [Example 122, 2,2,2-Trifluoro-1-{4-[4-(4-methoxy-phenyl)-2-methyl-1,2,3,4-tetrahydro-isoquinolin-7-yloxymethyl]-piperidin-1-yl}-ethanone]
- Ki [1]: 26 nM
- Ki [2]: 372 nM

Compound: COc1ccc(C2CN(C)Cc3cc(OCC4CCN(CC(F)(F)F)CC4)ccc32)cc1 (centres unmarked) [Example 123, 4-(4-Methoxy-phenyl)-2-methyl-7-[1-(2,2,2-trifluoro-ethyl)-piperidin-4-ylmethoxy]-1,2,3,4-tetrahydroisoquinoline]
- Ki [1]: 18 nM
- Ki [2]: 346 nM

Compound: CN1Cc2cc(OCCCN3CCC(F)CC3)ccc2C(c2ccccc2F)C1 (centres unmarked) [Example 125, 4-(2-Fluoro-phenyl)-7-[3-(4-fluoro-piperidin-1-yl)-propoxy]-2-methyl-1,2,3,4-tetrahydro-isoquinoline]
- Ki [1]: 45 nM
- Ki [2]: 2 nM

Compound: COc1ccc(C2CN(C)Cc3cc(OCCCNC(C4CC4)C4CC4)ccc32)cc1 (centres unmarked) [Example 131, Dicyclopropylmethyl-{3-[4-(4-methoxy-phenyl)-2-methyl-1,2,3,4-tetrahydro-isoquinolin-7-yloxy]-propyl}-amine]
- Ki [1]: 9 nM
- Ki [2]: 85 nM

Compound: C[C@H]1COCCN1CCCOc1ccc2c(c1)CN(C)CC2c1ccc(N2CCOCC2)cc1 (stereo partly drawn) [Example 133, 2-Methyl-7-[3-(3S-methyl-morpholin-4-yl)-propoxy]-4-(4-morpholin-4-yl-phenyl)-1,2,3,4-tetrahydro-isoquinoline]
- Ki [1]: 50 nM
- Ki [2]: 2 nM

Compound: COc1ccc(C2CN(C)Cc3cc(OCCCN4CC(C(c5ccccc5)c5ccccc5)C4)ccc32)cc1 (centres unmarked) [Example 137, 7-[3-(3-Benzhydryl-azetidin-1-yl)-propoxy]-4-(4-methoxy-phenyl)-2-methyl-1,2,3,4-tetrahydro-isoquinoline]
- Ki [1]: 77 nM
- Ki [2]: 5000 nM

Compound: CSc1ccc(C2CN(C)Cc3cc(OC4CCNCC4)ccc32)cc1 (centres unmarked) [Example 149, 2-Methyl-4-(4-methylsulfanyl-phenyl)-7-(piperidin-4-yloxy)-1,2,3,4-tetrahydro-isoquinoline]
- Ki [1]: 4 nM
- Ki [2]: 240 nM

Compound: COc1ccc(C2CN(C)Cc3cc(OC4CCNCC4)ccc32)c(F)c1 (centres unmarked) [Example 150, 4-(2-Fluoro-4-methoxy-phenyl)-2-methyl-7-(piperidin-4-yloxy)-1,2,3,4-tetrahydro-isoquinoline]
- Ki [1]: 7 nM
- Ki [2]: 175 nM

Compound: COc1ccc(C2CN(C)Cc3cc(OC4CCNCC4)ccc32)cc1F (centres unmarked) [Example 151, 4-(3-Fluoro-4-methoxy-phenyl)-2-methyl-7-(piperidin-4-yloxy)-1,2,3,4-tetrahydro-isoquinoline]
- Ki [1]: 3 nM
- Ki [2]: 119 nM

Compound: CSc1ccc(C2CN(C)Cc3c2ccc(OCCCN2CCOCC2)c3C)cc1 (centres unmarked) [Example 172, 2,8-Dimethyl-4-(4-methylsulfanyl-phenyl)-7-(3-morpholin-4-yl-propoxy)-1,2,3,4-tetrahydro-isoquinoline]
- Ki [1]: 14 nM
- Ki [2]: 89 nM

Compound: CSc1ccc(C2CN(C)Cc3cc(OCCCN4CCOCC4)c(C)cc32)cc1 (centres unmarked) [Example 173, 2,6-Dimethyl-4-(4-methylsulfanyl-phenyl)-7-(3-morpholin-4-yl-propoxy)-1,2,3,4-tetrahydro-isoquinoline]
- Ki [1]: 18 nM
- Ki [2]: 15 nM

More lines, now with the values ahead:

- Ki [1]: 13 nM
- Ki [2]: 2 nM
Compound: CCCN1CCC(Oc2ccc3c(c2)CN(C)CC3c2cccc(OC)c2)CC1 (centres unmarked) [Example 102, 4-(3-Methoxy-phenyl)-2-methyl-7-(1-propyl-piperidin-4-yloxy)-1,2,3,4-tetrahydro-isoquinoline]

- Ki [1]: 6 nM
- Ki [2]: 5 nM
Compound: CCN1CCC(COc2ccc3c(c2)CN(C)CC3c2ccc(SC)cc2)CC1 (centres unmarked) [Example 105, 7-(1-Ethyl-piperidin-4-ylmethoxy)-2-methyl-4-(4-methylsulfanyl-phenyl)-1,2,3,4-tetrahydro-isoquinoline]

- Ki [1]: 10 nM
- Ki [2]: 5 nM
Compound: CCN1CCC(COc2ccc3c(c2)CN(C)CC3c2ccc(OC)c(Cl)c2)CC1 (centres unmarked) [Example 107, 4-(3-Chloro-4-methoxy-phenyl)-7-(1-ethyl-piperidin-4-ylmethoxy)-2-methyl-1,2,3,4-tetrahydro-isoquinoline]

- Ki [1]: 13 nM
- Ki [2]: 12 nM
Compound: CCCN1CCC(COc2ccc3c(c2)CN(C)CC3c2ccc(OC)c(Cl)c2)CC1 (centres unmarked) [Example 108, 4-(3-Chloro-4-methoxy-phenyl)-2-methyl-7-(1-propyl-piperidin-4-ylmethoxy)-1,2,3,4-tetrahydro-isoquinoline]

- Ki [1]: 5000 nM
- Ki [2]: 39 nM
Compound: COc1ccc(C2CN(Cc3ccccc3)Cc3cc(OCCCN4CCC(F)CC4)ccc32)cc1 (centres unmarked) [Example 127, 2-Benzyl-7-[3-(4-fluoro-piperidin-1-yl)-propoxy]-4-(4-methoxy-phenyl)-1,2,3,4-tetrahydro-isoquinoline]

- Ki [1]: 40 nM
- Ki [2]: 12 nM
Compound: CN1Cc2cc(OCCCN3CCC(F)CC3)ccc2C(c2cccc(OC(F)(F)F)c2)C1 (centres unmarked) [Example 128, 7-[3-(4-Fluoro-piperidin-1-yl)-propoxy]-2-methyl-4-(3-trifluoromethoxy-phenyl)-1,2,3,4-tetrahydro-isoquinoline]

- Ki [1]: 19 nM
- Ki [2]: 4 nM
Compound: CN1Cc2cc(OCCCN3CCC(F)CC3)ccc2C(c2ccccc2Cl)C1 (centres unmarked) [Example 132, 4-(2-Chloro-phenyl)-7-[3-(4-fluoro-piperidin-1-yl)-propoxy]-2-methyl-1,2,3,4-tetrahydro-isoquinoline]

- Ki [1]: 6 nM
- Ki [2]: 18 nM
Compound: CSc1ccc(C2CN(C)Cc3cc(OCC4CCN(CCF)CC4)ccc32)cc1 (centres unmarked) [Example 178, 7-[1-(2-Fluoro-ethyl)-piperidin-4-ylmethoxy]-2-methyl-4-(4-methylsulfanyl-phenyl)-1,2,3,4-tetrahydro-isoquinoline]

- Ki [1]: 2 nM
- Ki [2]: 59 nM
Compound: COc1ccc(C2CN(C)Cc3cc(OCCCN4CC(F)(F)C4)ccc32)cc1 (centres unmarked) [Example 182, 7-[3-(3,3-Difluoro-azetidin-1-yl)-propoxy]-4-(4-methoxy-phenyl)-2-methyl-1,2,3,4-tetrahydro-isoquinoline]

- Ki [1]: 1 nM
- Ki [2]: 2 nM
Compound: COc1ccc(C2CN(C)Cc3cc(OCCCN4CCOC(CO)C4)ccc32)cc1 (centres unmarked) [Example 184, (4-{3-[4-(4-Methoxy-phenyl)-2-methyl-1,2,3,4-tetrahydro-isoquinolin-7-yloxy]-propyl}-morpholin-2-yl)-methanol]

- Ki [1]: 10 nM
- Ki [2]: 6 nM
Compound: CN1Cc2cc(OCCCN3CCC(F)CC3)ccc2C(c2ccc(Br)nc2)C1 (centres unmarked) [Example 186, 4-(6-Bromo-pyridin-3-yl)-7-[3-(4-fluoro-piperidin-1-yl)-propoxy]-2-methyl-1,2,3,4-tetrahydro-isoquinoline]
